Assay: xn = mol fraction of the nth substance listed
Settings: 101.3 kPa, Liquid

COC(=O)OC [dimethyl carbonate] + CCCCCC
Settings	mass density [kg/m3]	viscosity [mPa·s]
293.15 K, x1 = 0.0961	685.68	0.3032
293.15 K, x1 = 0.193	712.34	0.3094
293.15 K, x1 = 0.2909	741.99	0.3213
293.15 K, x1 = 0.3894	774.82	0.341
293.15 K, x1 = 0.489	811.38	0.3647
293.15 K, x1 = 0.5893	851.98	0.3939
293.15 K, x1 = 0.6906	897.34	0.427
293.15 K, x1 = 0.7928	948.58	0.4715
293.15 K, x1 = 0.896	1006.55	0.542
293.15 K, x1 = 1	1069.54	0.6173
298.15 K, x1 = 0.0961	680.92	0.2901
298.15 K, x1 = 0.193	707.38	0.294
298.15 K, x1 = 0.2909	736.8	0.306
298.15 K, x1 = 0.3894	769.42	0.3232
298.15 K, x1 = 0.489	805.8	0.3449
298.15 K, x1 = 0.5893	846.19	0.3709
298.15 K, x1 = 0.6906	891.45	0.4024
298.15 K, x1 = 0.7928	942.39	0.4472
298.15 K, x1 = 0.896	1000.17	0.5031
298.15 K, x1 = 1	1062.95	0.5734
303.15 K, x1 = 0.0961	676.14	0.279
303.15 K, x1 = 0.193	702.37	0.2817
303.15 K, x1 = 0.2909	731.62	0.2923
303.15 K, x1 = 0.3894	764.04	0.3061
303.15 K, x1 = 0.489	800.21	0.3252
303.15 K, x1 = 0.5893	840.41	0.3502
303.15 K, x1 = 0.6906	885.48	0.3808
303.15 K, x1 = 0.7928	936.19	0.4221
303.15 K, x1 = 0.896	993.78	0.4748
303.15 K, x1 = 1	1056.35	0.5403
313.15 K, x1 = 0.0961	666.41	0.2513
313.15 K, x1 = 0.193	692.21	0.2555
313.15 K, x1 = 0.2909	721.04	0.2645
313.15 K, x1 = 0.3894	753.05	0.277
313.15 K, x1 = 0.489	788.82	0.2938
313.15 K, x1 = 0.5893	828.62	0.3163
313.15 K, x1 = 0.6906	873.34	0.3417
313.15 K, x1 = 0.7928	923.65	0.3763
313.15 K, x1 = 0.896	980.84	0.4229
313.15 K, x1 = 1	1043.01	0.4807
323.15 K, x1 = 0.0961	656.55	0.2333
323.15 K, x1 = 0.193	681.9	0.2344
323.15 K, x1 = 0.2909	710.27	0.2423
323.15 K, x1 = 0.3894	741.92	0.2536
323.15 K, x1 = 0.489	777.28	0.2681
323.15 K, x1 = 0.5893	816.69	0.288
323.15 K, x1 = 0.6906	861.07	0.3101
323.15 K, x1 = 0.7928	910.98	0.3404
323.15 K, x1 = 0.896	967.8	0.3781
323.15 K, x1 = 1	1029.59	0.427
333.15 K, x1 = 0.0961	646.44	0.213
333.15 K, x1 = 0.193	671.36	0.2167
333.15 K, x1 = 0.2909	699.25	0.2239
333.15 K, x1 = 0.3894	730.55	0.234
333.15 K, x1 = 0.489	765.5	0.2466
333.15 K, x1 = 0.5893	804.52	0.2639
333.15 K, x1 = 0.6906	848.53	0.2842
333.15 K, x1 = 0.7928	898.13	0.3117
333.15 K, x1 = 0.896	954.54	0.3447
333.15 K, x1 = 1	1016	0.3893

COC(=O)OC [dimethyl carbonate] + CCCCCCC
Settings	mass density [kg/m3]	viscosity [mPa·s]
293.15 K, x1 = 0.1099	709.87	0.3932
293.15 K, x1 = 0.2176	735.33	0.3924
293.15 K, x1 = 0.3229	763.59	0.4001
293.15 K, x1 = 0.4259	794.8	0.4139
293.15 K, x1 = 0.5266	829.38	0.4321
293.15 K, x1 = 0.6252	867.51	0.4541
293.15 K, x1 = 0.7218	910.1	0.4774
293.15 K, x1 = 0.8165	957.71	0.5078
293.15 K, x1 = 0.9092	1011.41	0.5511
293.15 K, x1 = 1	1069.54	0.6173
298.15 K, x1 = 0.1099	705.39	0.3737
298.15 K, x1 = 0.2176	730.61	0.3723
298.15 K, x1 = 0.3229	758.68	0.3796
298.15 K, x1 = 0.4259	789.63	0.3911
298.15 K, x1 = 0.5266	823.98	0.4095
298.15 K, x1 = 0.6252	861.86	0.4261
298.15 K, x1 = 0.7218	904.23	0.45
298.15 K, x1 = 0.8165	951.63	0.4779
298.15 K, x1 = 0.9092	1005.04	0.5169
298.15 K, x1 = 1	1062.95	0.5734
303.15 K, x1 = 0.1099	700.93	0.3559
303.15 K, x1 = 0.2176	725.89	0.353
303.15 K, x1 = 0.3229	753.73	0.3585
303.15 K, x1 = 0.4259	784.46	0.3719
303.15 K, x1 = 0.5266	818.56	0.3855
303.15 K, x1 = 0.6252	856.24	0.4015
303.15 K, x1 = 0.7218	898.37	0.423
303.15 K, x1 = 0.8165	945.53	0.4491
303.15 K, x1 = 0.9092	998.7	0.4793
303.15 K, x1 = 1	1056.35	0.5403
313.15 K, x1 = 0.1099	691.78	0.32
313.15 K, x1 = 0.2176	716.32	0.3195
313.15 K, x1 = 0.3229	743.68	0.3248
313.15 K, x1 = 0.4259	773.95	0.3316
313.15 K, x1 = 0.5266	807.58	0.3435
313.15 K, x1 = 0.6252	844.82	0.3588
313.15 K, x1 = 0.7218	886.49	0.3777
313.15 K, x1 = 0.8165	933.18	0.402
313.15 K, x1 = 0.9092	985.81	0.4335
313.15 K, x1 = 1	1043.01	0.4807
323.15 K, x1 = 0.1099	682.57	0.2905
323.15 K, x1 = 0.2176	706.62	0.292
323.15 K, x1 = 0.3229	733.52	0.2932
323.15 K, x1 = 0.4259	763.34	0.2997
323.15 K, x1 = 0.5266	796.47	0.3118
323.15 K, x1 = 0.6252	833.28	0.3251
323.15 K, x1 = 0.7218	874.5	0.3403
323.15 K, x1 = 0.8165	920.24	0.3615
323.15 K, x1 = 0.9092	972.84	0.3906
323.15 K, x1 = 1	1029.59	0.427
333.15 K, x1 = 0.1099	673.2	0.2666
333.15 K, x1 = 0.2176	696.76	0.2648
333.15 K, x1 = 0.3229	723.19	0.267
333.15 K, x1 = 0.4259	752.53	0.273
333.15 K, x1 = 0.5266	785.19	0.2828
333.15 K, x1 = 0.6252	821.51	0.2946
333.15 K, x1 = 0.7218	862.31	0.3099
333.15 K, x1 = 0.8165	908.07	0.3291
333.15 K, x1 = 0.9092	959.74	0.3543
333.15 K, x1 = 1	1016	0.3893
343.15 K, x1 = 0.1099	663.69	0.2437
343.15 K, x1 = 0.2176	686.83	0.2429
343.15 K, x1 = 0.3229	712.79	0.2462
343.15 K, x1 = 0.4259	741.63	0.2512
343.15 K, x1 = 0.5266	773.79	0.2603
343.15 K, x1 = 0.6252	809.67	0.2725
343.15 K, x1 = 0.7218	850.05	0.2851
343.15 K, x1 = 0.8165	894.95	0.3015
343.15 K, x1 = 0.9092	946.54	0.3252
343.15 K, x1 = 1	1002.32	0.3527

Reference: the NIST ThermoML archive (doi:10.1021/je049777o)
